In PubChem BioAssay (NCI) one finds TGI data, which are given here for ten compounds.

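Cultured in 96-well plates, cells were exposed to test compound for 48 hours across five concentrations. TGI: concentration producing complete growth inhibition.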

Test systems include KM12 colon; EKVX NSCLC; LOX IMVI melanoma; NCI-H226 lung; RXF 393 renal; NCI-H460 lung; M14 melanoma; MDA-N; IGROV1 ovarian; SF-268 CNS.
Holding throughout (experiment): inhibition of tumour cell growth, NCI panel, 48 h

In the case of `CSCSSC`, the TGI in the test on KM12 colon, with EKVX NSCLC, with LOX IMVI melanoma, in the test on NCI-H226 lung, in the test with RXF 393 renal and in the test on NCI-H460 lung was more than 100 µM each time. The TGI with M14 melanoma, in the test with MDA-N, in the test with IGROV1 ovarian and in the test on SF-268 CNS was more than 100 µM throughout.

Take `Cc1csc(NC23CC4CC(CC(C4)C2)C3)[n+]1C(P(=O)([O-])O)P(=O)(O)O` (stereo not given): the TGI in the test on KM12 colon, in the test on EKVX NSCLC, with LOX IMVI melanoma, with NCI-H226 lung, in the test with RXF 393 renal and with NCI-H460 lung was more than 100 µM each time. The TGI with M14 melanoma, in the test with MDA-N, in the test on IGROV1 ovarian and in the test on SF-268 CNS was more than 100 µM in each case.

With `CCCCCCCC/C=C\CCCCCCC/C=C1\C[C@](/C=C/C(=O)OC)(CO)OC1=O`, the TGI in the test with KM12 colon is 14.2 µM; in the test on EKVX NSCLC it was 24.7 µM; in the test with LOX IMVI melanoma, 3.02 µM; in the test with NCI-H226 lung it was 6.66 µM; with RXF 393 renal it was 12.3 µM; in the test with NCI-H460 lung, 20.2 µM. In addition, the TGI in the test on M14 melanoma came to 4.34 µM; with MDA-N, 2.27 µM; in the test on IGROV1 ovarian it was 6.29 µM; in the test with SF-268 CNS it was 4.4 µM.

As to `COC(OC)[C@@H]1OC[C@H](n2cnc3c(N)ncnc32)[C@H]1O`, the TGI in the test on KM12 colon, in the test on EKVX NSCLC, in the test with LOX IMVI melanoma, with NCI-H226 lung, with RXF 393 renal and with NCI-H460 lung was more than 100 µM each time. Also, the TGI with M14 melanoma, in the test on MDA-N, in the test on IGROV1 ovarian and in the test on SF-268 CNS was more than 100 µM each time.

On to `C=C[C@@H](C)[C@H](NS(=O)(=O)c1ccc(C)cc1)C(=O)OCC`, for which the TGI with KM12 colon was more than 100 µM; in the test with EKVX NSCLC, more than 100 µM; in the test with LOX IMVI melanoma, 34.7 µM; in the test on NCI-H226 lung it was more than 100 µM; in the test on RXF 393 renal, more than 100 µM; with NCI-H460 lung, more than 100 µM. Further, the TGI with M14 melanoma is more than 100 µM; with MDA-N, 83.6 µM; with IGROV1 ovarian it was 77.3 µM; in the test with SF-268 CNS, more than 100 µM.

Take `C[n+]1cccc2c(=O)c3ccccc3oc21`: the TGI in the test on KM12 colon, in the test with EKVX NSCLC, in the test with LOX IMVI melanoma, in the test with NCI-H226 lung, in the test on RXF 393 renal and with NCI-H460 lung was more than 100 µM in each case. Further, the TGI in the test with M14 melanoma, in the test on MDA-N, in the test with IGROV1 ovarian and in the test on SF-268 CNS was more than 100 µM in each case.

Consider `CCOC(=O)c1nc2ccc(C(F)(F)F)cc2nc1Oc1cc(OC)c(OC)c(OC)c1`, for which the TGI with KM12 colon was more than 100 µM; in the test with EKVX NSCLC it was more than 100 µM; in the test on LOX IMVI melanoma, more than 100 µM; in the test with NCI-H226 lung, 81.9 µM; in the test with RXF 393 renal, more than 100 µM; with NCI-H460 lung, more than 100 µM. Also, the TGI in the test with M14 melanoma, with MDA-N, in the test with IGROV1 ovarian and in the test with SF-268 CNS was more than 100 µM each time.

In the case of `CC(C)CNc1nc2ncnc(N)c2[nH]1`, the TGI in the test on KM12 colon, in the test on EKVX NSCLC, with LOX IMVI melanoma, in the test on NCI-H226 lung, in the test on RXF 393 renal and in the test with NCI-H460 lung was more than 100 µM in each case. The TGI in the test with M14 melanoma, in the test on MDA-N, in the test on IGROV1 ovarian and in the test with SF-268 CNS was more than 100 µM throughout.

Regarding `Cc1ccc(/C(O)=C/c2nc3ccccc3sc2=O)c(C)c1`, the TGI with KM12 colon was more than 100 µM; in the test on EKVX NSCLC it was more than 100 µM; with LOX IMVI melanoma it was more than 100 µM; in the test on NCI-H226 lung, more than 100 µM; in the test with RXF 393 renal it was 18.2 µM; with NCI-H460 lung, more than 100 µM. Also, the TGI in the test on M14 melanoma, in the test with MDA-N, in the test on IGROV1 ovarian and in the test on SF-268 CNS was more than 100 µM throughout.

Take `Cc1ccc([S@](=O)c2occc2C=O)cc1`: the TGI turned out to be 31.5 µM with KM12 colon; 43.6 µM in the test with EKVX NSCLC; 3.93 µM in the test with LOX IMVI melanoma; 38 µM in the test with NCI-H226 lung; 26.3 µM in the test with RXF 393 renal; 33.8 µM in the test on NCI-H460 lung. Also, the TGI in the test with M14 melanoma was 20.7 µM; in the test with MDA-N, 15.1 µM; in the test on IGROV1 ovarian it was 31.2 µM; in the test on SF-268 CNS, 14.9 µM.
